Measurements from PMC10258912, “Synthesis and Molecular Docking of New N-Acyl Hydrazones-Benzimidazole as hCA I and II Inhibitors” (Medicinal Chemistry (Shariqah (United Arab Emirates), 2023).
Where two headings read alike, the source gives them in different places.

Key:
[1] = molecular target: T1, hCA I (Homo sapiens, UniProt P00915); assay: hCA I hydratase activity inhibition assay (Wilbur-Anderson method); assay type: biochemical; details: for Ki: Cheng-Prusoff equation
T1 construct: made in house
Procedure: (§1) Purification of hCA I and hCA II by affinity chromatography was performed as described in the previous work.
(§2) The Wilbur-Anderson method, as modified by Wilber et al., was used to calculate CA activity. With the help of a bromothymol blue indicator and a measurement of the passing time, the pH changes were calculated using this approach, which causes the hydration of CO2 to release H^+ ions. The equation (to-tc/tc), where to and tc are the times for pH change of the enzymatic and nonenzymatic processes, respectively, was used to compute the enzyme unit (EU).
(§3) While keeping the concentration of the substrate constant, IC50 values for the various compounds were computed. Enzyme activities in the absence of inhibitors in the medium were taken as 100% activity. By assessing the hydratase activity in the presence of various inhibitor concentrations, the activity % values of enzymes were calculated. Utilizing graphs of activity %-[I] for each inhibitor, the IC50 value was determined. The Cheng-Prusoff equation was used to derive inhibition constants using the nonlinear least squares method.

[2] = molecular target: T2, hCA II (Homo sapiens, UniProt P00918); assay: hCA II hydratase activity inhibition assay (Wilbur-Anderson method); assay type: biochemical; details: for relative inhibitory activity hCA II versus hCA I: comparison of IC50 values on hCA I and hCA II
T2 construct: made in house
Procedure: as §1, §2, §3

[3] = hydratase activity, constant substrate concentration, read-out: IC50 hCA I

T1 sequence (P00915 whole entry): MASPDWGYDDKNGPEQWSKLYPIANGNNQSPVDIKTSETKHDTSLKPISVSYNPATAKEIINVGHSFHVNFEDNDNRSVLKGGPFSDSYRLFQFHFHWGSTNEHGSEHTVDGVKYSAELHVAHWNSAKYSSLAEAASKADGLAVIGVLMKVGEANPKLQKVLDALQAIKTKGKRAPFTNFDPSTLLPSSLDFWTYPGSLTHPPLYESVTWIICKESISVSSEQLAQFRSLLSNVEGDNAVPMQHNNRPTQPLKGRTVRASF

O=C(NN=Cc1ccc([N+](=O)[O-])cc1)c1ccc(-c2nc3ccccc3[nH]2)cc1 [Compound 3n, 4-(1H-benzimidazole-2-yl)-N’-(4-nitrobenzylidene) benzohydrazide]
Ki [1]: 956 nM | relative inhibitory activity hCA II versus hCA I [2]: more inhibitory activity on hCA II than hCA I

CCN(CC)c1ccc(C=NNC(=O)c2ccc(-c3nc4ccccc4[nH]3)cc2)cc1 [Compound 3c, 4-(1H-benzimidazole-2-yl)-N’-(4-(diethylamino)benzylidene)benzohydrazide]
IC50 [1]: 2090 nM

COc1ccc(C=NNC(=O)c2ccc(-c3nc4ccccc4[nH]3)cc2)cc1 [Compound 3k, 4-(1H-benzimidazole-2-yl)-N’-(4-methoxybenzylidene)benzohydrazide]
relative inhibitory activity hCA II versus hCA I [2]: more inhibitory activity on hCA II than hCA I

CC(C)c1ccc(C=NNC(=O)c2ccc(-c3nc4ccccc4[nH]3)cc2)cc1 [Compound 3d, 4-(1H-benzimidazole-2-yl)-N’-(4-isopropylbenzylidene)benzohydrazide]
IC50 [1, 3]: 1870 nM

CCOc1ccc(C=NNC(=O)c2ccc(-c3nc4ccccc4[nH]3)cc2)cc1 [Compound 3i, 4-(1H-benzimidazole-2-yl)-N’-(4-ethoxybenzylidene) benzohydrazide]
relative inhibitory activity hCA II versus hCA I [2]: more inhibitory activity on hCA II than hCA I

Cc1ccc(C=NNC(=O)c2ccc(-c3nc4ccccc4[nH]3)cc2)cc1 [Compound 3p, 4-(1H-benzimidazole-2-yl)-N’-(4-methylbenzyli-dene) benzohydrazide]
type of inhibition, hCA I [1]: noncompetitive | Ki [1]: 299 ± 10 nM | IC50 [1, 3]: 1680 nM

N-(1H-benzimidazole-2-yl)-N’-benzylidenebenzo hydrazide [Compound 3a]
relative inhibitory activity hCA II versus hCA I [2]: more inhibitory activity on hCA II than hCA I

O=C(NN=Cc1ccc(F)cc1)c1ccc(-c2nc3ccccc3[nH]2)cc1 [Compound 3l, 4-(1H-benzimidazole-2-yl)-N’-(4-fluorobenzylidene)benzohydrazide]
IC50 [1, 3]: 2720 nM | relative inhibitory activity hCA II versus hCA I [2]: fairly close inhibitory properties on hCA I and hCA II | IC50 ([2]; hydratase activity, constant substrate concentration): 2740 nM

O=C(NN=Cc1ccc(OCc2ccccc2)cc1)c1ccc(-c2nc3ccccc3[nH]2)cc1 [Compound 3j, 4-(1H-benzimidazole-2-yl)-N’-(4-(benzyloxy)benzylidene)benzohydrazide]
IC50 [1, 3]: 1950 nM
